# Measurements reported in US20100286101A1, “PHARMACEUTICAL COMPOSITION INCLUDING A CORTICOSTEROID AND A VITAMIN D ANALOG HAVING IMPROVED STABILITY” (priority 2009, published 2010).
# Assay: Solvent attributes (dipolar, H-bonding, miscibility in mineral oil)
# Format: physicochemical
Molecule,Dipolar,H-bonding,Miscibility in oil (mineral oil)
CC(O)CO (stereo not drawn) [Propylene Glycol],Yes,Yes,No
Polysorbate 80,Yes,Yes,No
Sorbitan Sesquioleate,Yes,Yes,Yes
